Results: patent US20260284009A1, “COMPOUNDS FOR NOS-RELATED CANCERS AND METHODS OF USE” (YISSUM RESEARCH DEVELOPMENT COMPANY OF THE HEBREW …, priority 2023, published 2026)

What was measured:
U87-MG cells = assay: Xenograft glioblastoma model, U87-MG cells in NSG mice: tumor volume and mass; format: in vivo
Method: A xenograft glioblastoma model was generated by injecting 1.0×10^6 U87-MG cells (in PBS) into the subcutaneous tissue in the flank of NOD SCID Gamma (NSG) male (n=40) and female mice (n=5). Mice were 6-7 weeks old at time of injections. Mice were divided into groups and treatment was started when tumor volume reached 50 mm^3.
An initial experiment was performed with two treatment groups of mice, the treatment groups were: 0.1% DMSO (“Vehicle”) (n=10) and 80 mg/kg of 7-NI (n=10). Treatments were administered intraperitoneally daily for 8 days. Treatment started after five days from the injection with U87-MG cells. After one month, all mice were euthanized, and tumors were harvested for ex vivo analysis and histology. Tumor volume was measured using calipers and was calculated as (length*width^2)/2. The tumor volume of all mice were tabulated, as well the best 4-5 mice in terms of treatment efficacy (smallest tumor volume).
A dose response experiment was performed in the mice, the treatment groups were 0.1% DMSO (“Vehicle”) (n=8), 20 mg/kg 7-NI (n=8), 40 mg/kg 7-NI (n=8), and 80 mg/kg 7-NI (n=8). Treatments were administered intraperitoneally daily, for 14 days. Treatment started after five days from the injection with U87-MG cells. All mice were euthanized, and tumors were harvested for ex vivo analysis and histology. Tumor volume was measured using calipers and was calculated as (length*width^2)/2. The tumor volume of all mice were tabulated, as well the tumor mass.

U87-MG-xenografted mice = assay: Tumor volume and tumor mass in U87-MG-xenografted mice; format: in vivo; details: for tumor volume in a subset of mice: subset (top 4-5, smallest tumor volume) of U87-MG-xenografted mice, 10 mg/kg L-NIL or both
Method: In FIGS. 16A-16B, data are expressed as the mean±SEM. Statistical significance was determined using a One-way ANOVA followed by Fisher's LSD multiple comparison post hoc test. **P<0.01, ***P<0.001, ****P<0.0001, and ns=not significant.
FIG. 16A: Temporal tumor volume comparison for U87-MG-xenografted mice receiving treatment with 0.1% DMSO (“vehicle”) (n=10), 80 mg/kg 7-NI (“7-NI”) (n=10), 10 mg/kg L-NIL (“L-NIL”) (n=10), or 80 mg/kg 7-NI and 10 mg/kg L-NIL concurrently administered (“Combo”) (n=15).
FIG. 16B: Quantitative analysis of tumor volume for U87-MG-xenografted mice after 8 days for the experiments of FIG. 16A.
In FIGS. 17A-17B, data are expressed as the mean±SEM. Statistical significance was determined using a One-way ANOVA followed by Fisher's LSD multiple comparison post hoc test. *P<0.05, ****P<0.0001, and ns=not significant.
FIG. 17B: Quantitative analysis of tumor volume after 8 days for the subset of U87-MG-xenografted mice for the experiments of FIG. 17A.
In FIGS. 18A-18B, data are expressed as the mean.
Data are expressed as the mean±SEM. Statistical significance was determined using a One-way ANOVA with Bonferroni's multiple comparisons tests. **P<0.01, ****P<0.0001, ns=not significant.
Data are expressed as the mean±SEM. Statistical significance was determined using a One-way ANOVA with Bonferroni's multiple comparisons tests. *P<0.05, **P<0.01, ***P<0.001, and ****P<0.0001.

SH-SY5Y cells = assay: Western blot of SH-SY5Y cells (3-Ntyr, mTOR pathway proteins, synaptophysin); format: cell-based, human; details: 100 μM 7-NI, 24 hr
Method: Human neuroblastoma (“NB”) SH-SY5Y cells were obtained from the American Type Culture Collection (ATCC) and maintained in Dulbecco's modified Eagle's medium (DMEM) and Ham's F-12 (1:1) supplemented with 10% fetal bovine serum, 2 mM L-glutamine, and 100 U/ml penicillin-G/[…] streptomycin in the humidified atmosphere (37° C., 5% CO2). Cells were plated onto 25 cm^2 and 75 cm^2 at a density of […] respectively for Western blotting (WB) and 1×10^5 for immunofluorescence. The SH-SY5Y cells were treated with 100 μM 7-nitroindazole (7-NI) for 24 hr. This concentration was confirmed in the dose-response experiment (FIG. 1) using an MTT viability assay.
Cells were lysed in ice-cold RIPA buffer containing 50 mM Tris-HCl, 1% Nonidet P-40, 0.25% sodium deoxycholate, 150 mM NaCl, protease-, and phosphatase inhibitor cocktails, pH 7.4. After sonication, the lysates were centrifuged at 17,000 g for 30 min at 4° C., and the supernatant was collected. The protein concentrations were determined with the BCA protein assay. Proteins were resolved by SDS-PAGE, transferred to a PVDF membrane, and probed with the following antibodies: anti-pMTOR (rabbit, diluted 1:1000), anti-mTOR (rabbit, diluted 1:1000), anti-TSC2 (rabbit, diluted 1:1000), anti-nNOS (rabbit, diluted 1:1000), anti-pAKT (rabbit, diluted 1:1000), anti-AKT (rabbit, diluted 1: 1000), anti-pRPS6 (rabbit, diluted 1:1000), anti-RPS6 (mouse, diluted 1:1000), anti-synaptophysin (mouse, diluted 1:1000), anti-β-actin (rabbit, diluted 1:1000), anti-3-Nitrotyrosine (rabbit, diluted 1:5000) from Abcam. All primary antibodies, except anti-3-Nitrotyrosine, were purchased from Cell Signaling Technology. The blots were then visualized using an enhanced chemiluminescence (ECL) system.
SH-SY5Y cells were plated in 6 well plates, as well as on 22 mm^2 coverslips at a density of 6.0×10^4 cells/cm^2 and transfected with 20 nM nNOS siRNA (SEQ ID NO: 4) for 24 h, with the use of Lipofectamine RNAi MAX (56530, Invitrogen) according to the manufacturer's protocol. Then cells were washed with phosphate-buffered saline (PBS) and harvested for WB and fixed for immunofluorescence.

iNOS = iNOS expression level in U87-MG cells; format: cell-based, human; details: compared to the control treatment, not statistically significant (FIG. 14)
nNOS = nNOS expression level in U87-MG cells; format: cell-based, human; details: both the lower dose and higher dose, compared to the control treatment; not statistically significant (FIG. 15)
[1] = highest dosage of 7-NI (80 mg/kg) in dose response experiment, daily for 14 days, vs lower dosages
[2] = reduced dosages, as low as 20 mg/kg 7-NI intraperitoneally daily for 14 days, vs vehicle
[3] = U87-MG-xenografted mice, 80 mg/kg 7-NI, 10 mg/kg L-NIL or both concurrently, after 8 days, vs vehicle

SMILES | average tumor size (U87-MG cells; NSG mice, 80 mg/kg 7-NI intraperitoneally daily for 8 days, vs vehicle) | average tumor size (U87-MG cells; [1]) | tumor mass (U87-MG cells; [1]) | average tumor size (U87-MG cells; [2]) | tumor mass (U87-MG cells; [2]) | tumor volume (U87-MG-xenografted mice; [3]) | tumor volume (U87-MG-xenografted mice; U87-MG-xenografted mice, 20, 40 or 80 mg/kg 7-NI intraperitoneal for 14 days, vs vehicle) | tumor mass (U87-MG-xenografted mice; U87-MG-xenografted mice, 20, 40 or 80 mg/kg 7-NI, after 14 days, vs vehicle) | tumor volume in a subset of mice (U87-MG-xenografted mice; 80 mg/kg 7-NI, after 8 days) | 3-Ntyr levels (SH-SY5Y cells) | levels of TSC-2 (SH-SY5Y cells) | levels of synaptophysin (SH-SY5Y cells) | phosphorylation of RPS6 (SH-SY5Y cells) | phosphorylation of mTOR (SH-SY5Y cells) | phosphorylation of protein kinase-B (AKT) (SH-SY5Y cells) | expression level of iNOS (iNOS; higher dose) | expression level of iNOS (iNOS; lower dose) | expression level of nNOS (nNOS)
O=[N+]([O-])c1cccc2cn[nH]c12 [7-NI, 7-nitroindazole] | significantly smaller | larger reduction | larger reduction | significantly smaller | smaller | significantly smaller | significantly smaller | significantly smaller | significantly smaller | halved | significant increase | significantly decreased | reduced | decrease | reduced |  |  | 
CC(=N)NCCCC[C@H](N)C(=O)O [L-NIL, N^6-(1-iminoethyl)-L-lysine] |  |  |  |  |  | significantly smaller |  |  | significantly smaller |  |  |  |  |  |  | unchanged | slightly elevated | reduced
